Experimental data reported in US9511061B2, “Incontinence treatment methods” (IXALTIS, priority 2005, dated 2016).

Experiments:
[1] = tested on: anaesthetized female rabbits under conditions of vesical irritation; test: Activity of the striated anal sphincter (EMG-SAS) and vesical capacity in anaesthetized female rabbits under vesical irritation by diluted acetic acid; format: in vivo, rabbit
Description: The effect of 4-[(2-naphthalenyl)-methoxy]-piperidine (compound A) and of its solvent (NaCl 0.9%) on the electromyographic activity of the striated anal sphincter (EMG-SAS), used as a marker of the activity of the urethral sphincter, and on the vesical capacity (VC) was studied in vivo in anaesthetized female rabbits under conditions of vesical irritation induced by intra-vesical perfusion of diluted acetic acid (Perez Martinez et al., 2006 and Haab et al., 2006). […] 16 New Zealander female white rabbits (2.5-3.5 kg) anaesthetized by intramuscular injection of a mixture of ketamin (25 mg/kg) and sylazin (10 mg/kg), were subject to cystostomy. After laparotomy by median incision, a catheter was introduced at the dome of the bladder and held in place by a purse suture. A multiperforable plug was placed at the end of the catheter, and then the catheter was internalized subcutaneously and attached at the abdomen with a silk ligature. 3 days after cystotomy, cystomanometry was performed on animals anaesthetized with halothane (2-3%). A T-tube was connected at the multiperformable plug, and then connected to a pressure sensor (Letica, PanLab) and to a micro-pump allowing perfusion of the bladder (Razel 99, Scientific Instruments). […] The micturitional profile was continuously recorded by means of a data acquisition system (PowerLab 4/25, PanLab) and the different urodynamic parameters, including vesical capacity (VC), were determined. […] The electric signal, amplified and filtered (bandwidth 1 Hz-5 kHz) was continuously recorded by means of the data acquisition system. EMG-SAS was measured during the phase for filling the bladder, in order to get rid of the parasitics related to perineal movements occurring during micturition.
A catheter was implanted at the vein of the ear in order to allow administration of compound A or of its solvent (NaCl 0.9%) in a volume of 1 mL. […] During a stabilization period (SP) of at least 60 minutes, during which the bladder was perfused, in order to induce regular micturitional cycles, two consecutive doses (1 and 3 mg/kg of compound A or of solvent were administered intravenously, at intervals of 40 minutes. For each of the tested doses, the effects of the compound A and of its solvent on EMG-SAS and on VC were expressed as a percentage of the stabilization period (mean±standard error of mean). During the stabilization period, the parameters obtained in both experimental groups (compound A and solvent) were the same (p>0.05; Kruskal-Wallis test): for EMG-SAS, 1.76±1.04 (n=8) and 1.41±0.59 activity peaks/minute (n=8), for the compound A and its solvent and for VC, respectively, 21.63±4.92 (n=8) and 18.31±2.90 mL (n=8), for the compound A and its solvent respectively. […]

[2] = tested on: anaesthetized female rats under vesical irritation conditions; test: Vesical capacity in anaesthetized female rats under vesical irritation by diluted acetic acid; format: in vivo, rat; conditions: 2 mg/kg i.v., mean±SEM, n=8
Method: After laparotomy, a bursa was formed at the dome of the bladder, and then a catheter was introduced and ligatured at this bursa. A catheter was implanted at the jugular vein in order to allow administration of the compound A or its solvent. Cystomanometry was performed on the animals placed beforehand on a heating plate, in order to maintain their body temperature around 37° C. A 3-way valve was positioned at the end of the vesical catheter and then connected to a pump allowing perfusion of the bladder (Model “11” plus, Harvard Apparatus) and to a pressure sensor (MX 860/866 Novatrans, Medex Medical). Diluted acetic acid (0.3%) held at room temperature was perfused into the bladder (3 mL/h) in order to induce successive micturitions under vesical irritation conditions. The micturitional profile was continuously recorded by means of a data acquisition system (MacLab/8^e, AD Instruments) and the different urodynamic parameters, including vesical capacity (VC) were determined. […] The compound A (2 mg/kg) or its solvent were then injected intravenously in a volume of 1 mL administered within 5 minutes by means of a syringe pump (Model A-99, Fisher Bioblock Scientific). The effects of the compound A and of its solvent on VC were evaluated at times, 20, 40 and 60 minutes after administration and expressed as a percentage of variation of the basal value (mean±standard error of mean). In both experimental groups (compound A and solvent), the basal values of VC were the same (p>0.05; analysis of variance): 0.045±0.005 mL and 0.042±0.006 mL for the solvent (n=11) and the compound A (n=8), respectively. […] (see compound A group (n=8) in FIG. 2).

human detrusor muscle = test: Electrically stimulated human detrusor muscle strips in vitro
Method: The effect of the compound A and of its solvent (Krebs solution) was tested in vitro on bladder strips taken on two male patients within the scope of a radical cystectomy because of an urothelial carcinoma. The strips were mounted in baths with isolated organs, containing a Krebs solution, heated to 37° C. and oxygenated with carbogen (95% O2 and 5% CO2). After a 60 minute stabilization period, the viability of the strips was tested by performing a contraction with 80 mM KCl. After 30 minutes of wash-out and stabilization, the strips were submitted to electric field stimulation, in order to cause neurogenic contractions. The electric stimulation parameters used were the following: frequency: 30 Hz, maximum voltage, pulse duration 0.1 ms, 5 second pulse trains every 100 s. After stabilization of the neurogenic response (about 30 minutes after beginning of the electric stimulation), a range of cumulative concentration-response curves for the compound A was obtained between 0.01-100 μM. It was shown that from 10 μM, the compound A inhibits in a concentration-dependent way, the contractile response of the detrusor muscle strips to electric stimulation with inhibition percentages of 20.1±4.7% at 10 μM, 41.7±5.2% at 30 μM and 80.8±6.8% at 100 μM. Tested under the same conditions, the solvent of the compound A has an inhibiting effect of the order of 10% on the contractions of the detrusor muscle.

5-HT1A = 5-HT1A (Homo sapiens (Human), UniProt P08908); test: Binding test on cloned human serotoninergic receptor
Method: (§1) The affinity of the compound A was evaluated in vitro on 8 cloned human serotoninergic receptors by measuring the specific binding of the ligands to the corresponding receptors according to methods adapted from Mulheron (1994), Bryant (1996), Choi (1994), Hope (1996), Mialet (2000), Rees (1994) and Shen (1993).

5-HT2A (agonist) = 5-HT2A (agonist) (Homo sapiens (Human), UniProt P28223); test: as above; conditions: 5-HT2A (agonist) site
Method: as §1

5-HT2B (agonist) = 5-HT2B (agonist) (Homo sapiens (Human), UniProt P41595); test: as above; conditions: 5-HT2B (agonist) site
Method: as §1

5-HT2C (agonist) = 5-HT2C (agonist) (Homo sapiens (Human), UniProt P28335); test: as above; conditions: 5-HT2C (agonist) site
Method: as §1

5-HT3 = 5-HT3 (Homo sapiens (Human), UniProt P46098); test: as above
Method: as §1

5-HT4e = 5-HT4e (Homo sapiens (Human), UniProt Q13639); test: as above
Method: as §1

5-HT5A = 5-HT5A (Homo sapiens (Human), UniProt P47898); test: as above
Method: as §1

5-HT7 = 5-HT7 (Homo sapiens (Human), UniProt P34969); test: as above
Method: as §1

human 5-HT2C receptor = human 5-HT2C receptor (Homo sapiens (Human), UniProt P28335); test: Cellular functional test ([35S]GTPγS binding) on cloned human 5-HT2C receptor in CHO cells; format: cell-based
Method: The agonistic and antagonistic activities of the compound A were evaluated in vitro on the human 5-HT2C receptor expressed in Chinese hamster ovarian cells (CHO cells) in a range of concentrations comprised between 1 nM and 100 μM by quantitation of the binding of the specific ligand of the receptor, [^35S]GTPγS, according to a method adapted from Adlersberg (2000) and from Cussac (2002).

[3] = tested on: 5-HT7 receptor in isolated rat bladder; test: Potentialization by serotonin of the neurogenic response of isolated rat bladder (5-HT7 antagonistic functional test); conditions: after incubation with 10 μM of compound A; n=6; solvent 52.7±7.3%
Method: The effect of the compound A and of its solvent (Krebs solution) on the potentialization by serotonin of the neurogenic response of isolated rat bladder was studied in vitro. Strips of detrusor muscle taken from Wistar female rats (250-300 grams) were mounted in baths with isolated organs, containing a Krebs solution, heated to 37° C. and oxygenated with carbogen (95% O2 and 5% CO2). After a 60 minute stabilization period, contraction with 80 mM KCl was achieved. After 30 minutes of wash-out and stabilization, the strips were submitted to electric field stimulation, in order to cause neurogenic contractions. The electric stimulation parameters used were the following: frequency: 5 Hz, maximal voltage, pulse duration 0.3 ms, 10 second pulse trains every 60 s. The compound A and its solvent are incubated for 60 minutes, 30 minutes without electric stimulation and 30 minutes during the phase for stabilizing the neurogenic response. After stabilization, a 5-HT cumulative concentration-response curve range was achieved between 0.01-100 μM.

adrenergic receptors α1 = test: Affinity for adrenergic receptors; format: binding
adrenergic receptors α2 = test: Affinity for adrenergic receptors; format: binding
adrenergic receptors β = test: Affinity for adrenergic receptors; format: binding
muscarinic receptors = test: Affinity for muscarinic receptors; format: binding
[4] = tested on: recapture of serotonine (5-HT) as compared with that of norepinephrine (NE); conditions: selectivity, Scatton 1988; cited from earlier work
[5] = tested on: recapture of serotonin as compared with that for dopamine (DA); conditions: selectivity, Scatton 1988; cited from earlier work
[6] = 1 mg/kg intravenously, relative to stabilization period

human 5-HT2C receptor, sequence (P28335 33-458): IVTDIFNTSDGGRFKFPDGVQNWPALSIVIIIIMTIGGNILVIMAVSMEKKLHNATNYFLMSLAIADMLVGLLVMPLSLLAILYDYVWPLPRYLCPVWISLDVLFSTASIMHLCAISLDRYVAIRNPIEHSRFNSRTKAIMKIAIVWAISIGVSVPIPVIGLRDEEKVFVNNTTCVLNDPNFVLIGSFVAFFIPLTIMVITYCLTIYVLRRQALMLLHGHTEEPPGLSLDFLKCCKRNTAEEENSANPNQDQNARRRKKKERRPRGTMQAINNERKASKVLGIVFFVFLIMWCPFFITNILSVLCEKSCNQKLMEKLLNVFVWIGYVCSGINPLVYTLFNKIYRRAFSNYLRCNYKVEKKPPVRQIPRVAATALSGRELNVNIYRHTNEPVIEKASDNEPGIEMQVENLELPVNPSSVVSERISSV
5-HT2B (agonist), sequence (P41595 whole entry): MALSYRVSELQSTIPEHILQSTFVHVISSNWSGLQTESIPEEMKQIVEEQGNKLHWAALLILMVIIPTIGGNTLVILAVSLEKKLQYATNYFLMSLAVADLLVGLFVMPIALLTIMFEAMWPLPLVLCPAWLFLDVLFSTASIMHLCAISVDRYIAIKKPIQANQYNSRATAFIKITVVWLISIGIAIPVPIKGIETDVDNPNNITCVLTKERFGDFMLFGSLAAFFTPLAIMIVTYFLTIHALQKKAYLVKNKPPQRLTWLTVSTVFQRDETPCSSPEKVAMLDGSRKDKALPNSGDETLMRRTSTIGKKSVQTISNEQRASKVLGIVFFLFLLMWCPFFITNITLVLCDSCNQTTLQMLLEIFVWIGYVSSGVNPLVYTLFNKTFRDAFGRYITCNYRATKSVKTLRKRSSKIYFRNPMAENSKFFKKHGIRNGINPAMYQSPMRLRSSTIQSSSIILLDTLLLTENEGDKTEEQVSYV
5-HT4e, sequence (Q13639 other isoform, or with tags, fused parts or gaps): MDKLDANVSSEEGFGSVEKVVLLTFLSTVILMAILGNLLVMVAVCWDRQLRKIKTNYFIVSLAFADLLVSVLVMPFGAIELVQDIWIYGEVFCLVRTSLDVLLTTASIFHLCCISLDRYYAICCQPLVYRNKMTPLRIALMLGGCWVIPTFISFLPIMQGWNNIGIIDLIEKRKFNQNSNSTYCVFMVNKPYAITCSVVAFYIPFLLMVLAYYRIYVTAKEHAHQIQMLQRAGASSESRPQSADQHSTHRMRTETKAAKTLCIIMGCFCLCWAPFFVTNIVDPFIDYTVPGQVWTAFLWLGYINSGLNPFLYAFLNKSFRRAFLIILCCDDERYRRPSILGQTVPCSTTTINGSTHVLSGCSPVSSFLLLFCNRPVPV
5-HT7, sequence (P34969 whole entry): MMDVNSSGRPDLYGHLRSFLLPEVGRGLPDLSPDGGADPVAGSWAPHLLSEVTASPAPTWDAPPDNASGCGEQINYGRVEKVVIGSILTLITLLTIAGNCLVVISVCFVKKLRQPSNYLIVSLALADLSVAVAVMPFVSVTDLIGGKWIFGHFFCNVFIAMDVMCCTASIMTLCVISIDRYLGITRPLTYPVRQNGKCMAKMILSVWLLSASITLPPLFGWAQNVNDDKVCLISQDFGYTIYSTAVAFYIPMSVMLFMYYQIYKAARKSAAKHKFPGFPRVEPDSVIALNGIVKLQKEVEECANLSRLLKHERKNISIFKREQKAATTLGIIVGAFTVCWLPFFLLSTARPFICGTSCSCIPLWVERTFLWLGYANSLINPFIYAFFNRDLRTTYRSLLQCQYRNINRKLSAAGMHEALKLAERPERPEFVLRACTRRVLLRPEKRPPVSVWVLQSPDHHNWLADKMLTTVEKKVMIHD
5-HT3, sequence (P46098 24-478): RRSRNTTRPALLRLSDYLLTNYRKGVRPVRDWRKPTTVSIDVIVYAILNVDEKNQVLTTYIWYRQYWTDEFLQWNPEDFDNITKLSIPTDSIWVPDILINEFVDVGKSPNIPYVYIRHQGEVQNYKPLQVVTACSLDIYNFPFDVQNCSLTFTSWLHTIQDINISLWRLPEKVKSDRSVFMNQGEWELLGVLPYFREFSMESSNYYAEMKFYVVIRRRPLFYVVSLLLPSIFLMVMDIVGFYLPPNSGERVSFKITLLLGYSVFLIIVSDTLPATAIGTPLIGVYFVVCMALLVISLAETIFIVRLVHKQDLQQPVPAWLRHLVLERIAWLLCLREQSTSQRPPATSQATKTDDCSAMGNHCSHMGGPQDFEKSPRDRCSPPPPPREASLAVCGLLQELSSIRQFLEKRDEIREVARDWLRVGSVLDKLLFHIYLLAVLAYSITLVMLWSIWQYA
5-HT2A (agonist), sequence (P28223 whole entry): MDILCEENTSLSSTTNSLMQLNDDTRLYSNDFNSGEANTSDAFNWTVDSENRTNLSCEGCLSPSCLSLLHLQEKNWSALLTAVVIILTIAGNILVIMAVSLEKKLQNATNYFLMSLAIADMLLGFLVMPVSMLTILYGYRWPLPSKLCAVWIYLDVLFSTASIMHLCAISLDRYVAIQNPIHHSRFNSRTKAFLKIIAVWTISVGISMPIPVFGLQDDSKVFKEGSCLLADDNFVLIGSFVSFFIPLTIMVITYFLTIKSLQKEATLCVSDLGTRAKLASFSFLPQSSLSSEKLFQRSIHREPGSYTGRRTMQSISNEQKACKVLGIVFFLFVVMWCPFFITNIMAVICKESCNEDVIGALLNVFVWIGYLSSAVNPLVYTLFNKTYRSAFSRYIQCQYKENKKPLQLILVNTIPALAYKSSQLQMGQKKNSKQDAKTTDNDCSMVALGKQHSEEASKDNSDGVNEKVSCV
5-HT2C (agonist), sequence (P28335 33-458): as the sequence (P28335 33-458) above
5-HT1A, sequence (P08908 whole entry): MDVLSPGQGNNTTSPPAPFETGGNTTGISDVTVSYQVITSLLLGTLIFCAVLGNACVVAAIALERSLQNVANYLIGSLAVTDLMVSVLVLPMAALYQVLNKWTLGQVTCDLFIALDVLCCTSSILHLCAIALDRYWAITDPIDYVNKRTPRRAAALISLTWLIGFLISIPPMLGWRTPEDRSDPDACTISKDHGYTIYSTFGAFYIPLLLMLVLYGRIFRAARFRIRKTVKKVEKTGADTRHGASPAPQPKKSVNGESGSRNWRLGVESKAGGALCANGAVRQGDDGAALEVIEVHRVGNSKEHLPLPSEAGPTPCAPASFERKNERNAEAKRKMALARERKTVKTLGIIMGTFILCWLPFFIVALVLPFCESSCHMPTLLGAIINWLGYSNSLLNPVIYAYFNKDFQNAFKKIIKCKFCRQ
5-HT5A, sequence (P47898 whole entry): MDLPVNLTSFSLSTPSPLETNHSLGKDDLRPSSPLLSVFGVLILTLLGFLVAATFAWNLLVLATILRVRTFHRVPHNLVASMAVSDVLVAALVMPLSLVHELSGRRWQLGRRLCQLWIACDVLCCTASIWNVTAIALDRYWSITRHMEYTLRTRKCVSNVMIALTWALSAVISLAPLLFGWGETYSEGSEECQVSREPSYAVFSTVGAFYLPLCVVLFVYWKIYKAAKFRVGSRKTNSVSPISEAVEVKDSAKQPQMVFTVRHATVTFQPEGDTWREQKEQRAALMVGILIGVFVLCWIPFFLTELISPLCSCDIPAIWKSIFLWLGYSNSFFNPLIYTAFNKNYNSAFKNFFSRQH

inhibition of the specific binding of the control (5-HT1A): 14% | IC50 (5-HT2A (agonist)): 1000 nM | Ki (5-HT2A (agonist); Cheng Prusoff): 620 nM | IC50 (5-HT2B (agonist)): 1000 nM | Ki (5-HT2B (agonist); Cheng Prusoff): 980 nM | IC50 (5-HT2C (agonist)): 250 nM | Ki (5-HT2C (agonist); Cheng Prusoff): 200 nM | IC50 (5-HT3): 1400 nM | Ki (5-HT3; Cheng Prusoff): 720 nM | IC50 (5-HT4e): 4700 nM | Ki (5-HT4e; Cheng Prusoff): 1600 nM | inhibition of the specific binding of the control (5-HT5A): 1% | IC50 (5-HT7): 7200 nM | Ki (5-HT7; Cheng Prusoff): 2600 nM | antagonistic activity (human 5-HT2C receptor; 10 μM): 18% | agonistic activity (human 5-HT2C receptor; 3.10^−5 M (plateau)): 44% | agonistic activity (human 5-HT2C receptor; 10^−4 M (plateau)): 42% | IC50 (human 5-HT2C receptor; agonistic activity, [35S]GTPγS, CHO cells, read-out: IC50 (partial agonist for the 5-HT2C receptor)): 1500 nM | IC50 (adrenergic receptors α1): 40000 nM | IC50 (adrenergic receptors α2): 70000 nM | IC50 (adrenergic receptors β): 100000 nM | IC50 (muscarinic receptors): 99000 nM
Compound: c1ccc2cc(COC3CCNCC3)ccc2c1 [Compound A, 4-[(2-naphthalenyl)-methoxy]-piperidine]
effect on EMG-SAS (electromyographic activity of the striated anal sphincter) [1, 6]: did not induce any significant effect | effect on vesical capacity (VC) [1, 6]: did not induce any significant effect | increase in EMG-SAS, percentage of the stabilization period ([1]; 3 mg/kg intravenously, mean±SEM, n=7, p=0.018): 1,521.90±966.61% | increase in VC, percentage of the stabilization period ([1]; 3 mg/kg intravenously, mean±SEM, n=8): 123.29±11.62% | increase in VC, percentage of variation of the basal value ([2]; 20 minutes after administration): 46.25±16.40% | increase in VC, percentage of variation of the basal value ([2]; 40 minutes after administration): 44.61±17.51% | increase in VC, percentage of variation of the basal value ([2]; 60 minutes after administration): 60.34±17.8% | inhibition of the contractile response of detrusor muscle strips to electric stimulation (human detrusor muscle; 10 μM): 20.1±4.7% | inhibition of the contractile response of detrusor muscle strips to electric stimulation (human detrusor muscle; 30 μM): 41.7±5.2% | inhibition of the contractile response of detrusor muscle strips to electric stimulation (human detrusor muscle; 100 μM): 80.8±6.8% | antagonistic activity (human 5-HT2C receptor; between 1 nM and 1 μM): Without any significant antagonistic activity | maximum response of 5-HT, % of the reference contraction induced by 80 mM KCl [3]: 18.7±3.2% | IC50 NE/HT ratio [4]: 89 | IC50 DA/HT ratio [5]: 188
